Data reported in patent publication US8404643B2, “Metastin derivatives and use thereof” (priority 2005, dated 2013).
Square brackets hold non-standard residues; d marks the D form. Peptide text beside a SMILES is read from it. * marks the point of attachment. Pro(4S-NH2) = N[C@@H]1CN[C@H](C(=O)O)C1; Phe(3-F) = N[C@@H](Cc1cccc(F)c1)C(=O)O; Phe(2-F) = N[C@@H](Cc1ccccc1F)C(=O)O; Arg(Me) = CNC(=N)NCCC[C@H](N)C(=O)O; dNMeF = CN[C@H](Cc1ccccc1)C(=O)O; Pip = O=C(O)[C@@H]1CCCCN1; Thz = O=C(O)[C@@H]1CSCN1; Dab = NCC[C@H](N)C(=O)O; NHBn = c1ccc(CN*)cc1; NHPentyl = CCCCCN*; azaGly = NNC(=O)O; NHcPr = C1CC1N*

These compounds were tested against T1, hOT7T175 (Homo sapiens, UniProt Q969F8) (assay: Assay for intracellular Ca ion level-increasing activity using FLIPR). Conditions: hOT7T175/CHO cells, relative to Metastin (1-54).
T1 construct: expressed in transfected cells
T1 sequence (Q969F8 whole entry L364H): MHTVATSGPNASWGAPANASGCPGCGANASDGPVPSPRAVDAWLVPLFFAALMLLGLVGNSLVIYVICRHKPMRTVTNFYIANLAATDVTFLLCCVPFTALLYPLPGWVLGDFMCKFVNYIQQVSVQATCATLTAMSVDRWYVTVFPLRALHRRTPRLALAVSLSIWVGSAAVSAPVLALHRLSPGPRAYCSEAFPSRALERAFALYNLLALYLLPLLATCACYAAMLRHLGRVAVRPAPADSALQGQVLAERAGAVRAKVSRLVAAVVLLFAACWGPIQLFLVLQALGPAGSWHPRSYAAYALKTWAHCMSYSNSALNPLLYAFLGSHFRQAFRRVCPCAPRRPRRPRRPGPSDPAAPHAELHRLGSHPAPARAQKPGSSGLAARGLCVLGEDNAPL
Assay type: cell-based
In short: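 CHO/dhfr− cells stably transfected with hOT7T175, selected for high metastin response, loaded with Fluo3-AM for 1 h at 37 °C in HANKS/HBSS (pH 7.4) with probenecid. Peptides were diluted from 1×10^−3 M DMSO stock into HANKS/HBSS with 2.5 mM probenecid, 0.2% BSA, 0.1% CHAPS; intracellular Ca rise read by FLIPR.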

| SMILES | Specific Activity: intracellular Ca ion level-increasing activity [specific activity to Metastin (1-54)] |
| --- | --- |
| CNC(=N)NCCC[C@H](NC(=O)[C@H](CC(C)C)NC(=O)NNC(=O)[C@H](Cc1ccccc1)NC(=O)[C@@H](NC(=O)[C@H](CC(N)=O)NC(=O)[C@H](CC(C)C)NC(=O)[C@@H](Cc1ccc(O)cc1)NC(C)=O)[C@@H](C)O)C(=O)N[C@@H](Cc1c[nH]c2ccccc12)C(N)=O [Compound No. 743, Ac-D-Tyr-Leu-Asn-Thr-Phe-AzaGly-Leu-Arg(Me)-Trp-NH2] (Ac-[dY]LNTF[azaGly]L[Arg(Me)]W-NH2) | 3.4 |
| CNC(=N)NCCC[C@H](NC(=O)[C@H](CC(C)C)NC(=O)NNC(=O)[C@H](Cc1ccccc1)NC(=O)[C@@H](NC(=O)[C@H](CCN)NC(=O)[C@@H](Cc1c[nH]c2ccccc12)NC(=O)[C@@H](Cc1ccc(O)cc1)NC(C)=O)[C@@H](C)O)C(=O)N[C@@H](Cc1c[nH]c2ccccc12)C(N)=O [Compound No. 740, Ac-D-Tyr-D-Trp-Dab-Thr-Phe-AzaGly-Leu-Arg(Me)-Trp-NH2] (Ac-[dY][dW][Dab]TF[azaGly]L[Arg(Me)]W-NH2) | 1.1 |
| CCCCCNC(=O)C[C@H](NC(=O)[C@@H](Cc1c[nH]c2ccccc12)NC(=O)[C@@H](Cc1ccc(O)cc1)NC(C)=O)C(=O)N[C@H](C(=O)N[C@@H](Cc1ccccc1)C(=O)NNC(=O)N[C@@H](CC(C)C)C(=O)N[C@@H](CCCNC(=N)NC)C(=O)N[C@@H](Cc1c[nH]c2ccccc12)C(N)=O)[C@@H](C)O [Compound No. 714, Ac-D-Tyr-D-Trp-Asp(NHPen)-Thr-Phe-AzaGly-Leu-Arg(Me)-Trp-NH2] (Ac-[dY][dW]D(NHPentyl)TF[azaGly]L[Arg(Me)]W-NH2) | 0.7 |
| CNC(=N)NCCC[C@H](NC(=O)[C@H](CC(C)C)NC(=O)NNC(=O)[C@H](Cc1ccccc1)NC(=O)[C@@H](NC(=O)[C@H](CC(=O)NC1CC1)NC(=O)[C@@H](Cc1c[nH]c2ccccc12)NC(=O)[C@@H](Cc1ccc(O)cc1)NC(C)=O)[C@@H](C)O)C(=O)N[C@@H](Cc1c[nH]c2ccccc12)C(N)=O [Compound No. 715, Ac-D-Tyr-D-Trp-Asp(NHcPr)-Thr-Phe-AzaGly-Leu-Arg(Me)-Trp-NH2] (Ac-[dY][dW]D(NHcPr)TF[azaGly]L[Arg(Me)]W-NH2) | 1.6 |
| CC(=O)N[C@H](Cc1ccc(O)cc1)C(=O)N[C@H](Cc1c[nH]c2ccccc12)C(=O)N[C@@H](CC(N)=O)C(=O)N[C@H](C(=O)N[C@@H](Cc1ccccc1)C(=O)NNC(=O)N[C@@H](CC(C)C)C(=O)N[C@H](CCCNC(=N)N)C(=O)N[C@@H](Cc1c[nH]c2ccccc12)C(N)=O)[C@@H](C)O [Compound No. 708, Ac-D-Tyr-D-Trp-Asn-Thr-Phe-AzaGly-Leu-D-Arg-Trp-NH2] (Ac-[dY][dW]NTF[azaGly]L[dR]W-NH2) | 12.8 |
| CNC(=N)NCCC[C@H](NC(=O)[C@H](CC(C)C)NC(=O)NNC(=O)[C@H](Cc1ccccc1F)NC(=O)[C@@H](NC(=O)[C@H](CC(N)=O)NC(=O)[C@H](CCC(=O)O)NC(=O)[C@@H](Cc1ccc(O)cc1)NC(C)=O)[C@@H](C)O)C(=O)N[C@@H](Cc1c[nH]c2ccccc12)C(N)=O [Compound No. 755, Ac-D-Tyr-Glu-Asn-Thr-Phe(2F)-AzaGly-Leu-Arg(Me)-Trp-NH2] (Ac-[dY]ENT[Phe(2-F)][azaGly]L[Arg(Me)]W-NH2) | 3.5 |
| CNC(=N)NCCC[C@H](NC(=O)[C@H](CC(C)C)NC(=O)NNC(=O)[C@H](Cc1ccccc1)NC(=O)[C@@H](NC(=O)[C@H](CC(N)=O)NC(=O)[C@@H]1CSCN1C(=O)[C@@H](Cc1ccc(O)cc1)NC(C)=O)[C@@H](C)O)C(=O)N[C@@H](Cc1c[nH]c2ccccc12)C(N)=O [Compound No. 724, Ac-D-Tyr-Thz-Asn-Thr-Phe-AzaGly-Leu-Arg(Me)-Trp-NH2] (Ac-[dY][Thz]NTF[azaGly]L[Arg(Me)]W-NH2) | 1.4 |
| CNC(=N)NCCC[C@H](NC(=O)[C@H](CC(C)C)NC(=O)NNC(=O)[C@H](Cc1ccccc1)NC(=O)[C@@H](NC(=O)[C@H](CC(N)=O)NC(=O)[C@@H](Cc1ccccc1)N(C)C(=O)[C@@H](Cc1ccc(O)cc1)NC(C)=O)[C@@H](C)O)C(=O)N[C@@H](Cc1c[nH]c2ccccc12)C(N)=O [Compound No. 782, Ac-D-Tyr-D-NMePhe-Asn-Thr-Phe-AzaGly-Leu-Arg(Me)-Trp-NH2] (Ac-[dY][dNMeF]NTF[azaGly]L[Arg(Me)]W-NH2) | 1.8 |
| CNC(=N)NCCC[C@H](NC(=O)[C@H](CC(C)C)NC(=O)NNC(=O)[C@H](Cc1ccccc1)NC(=O)[C@@H](NC(=O)[C@H](CC(N)=O)NC(=O)[C@@H]1CCCCN1C(=O)[C@@H](Cc1ccc(O)cc1)NC(C)=O)[C@@H](C)O)C(=O)N[C@@H](Cc1c[nH]c2ccccc12)C(N)=O [Compound No. 721, Ac-D-Tyr-Pic(2)-Asn-Thr-Phe-AzaGly-Leu-Arg(Me)-Trp-NH2] (Ac-[dY][Pip]NTF[azaGly]L[Arg(Me)]W-NH2) | 1.1 |
| CNC(=N)NCCC[C@H](NC(=O)[C@H](CC(C)C)NC(=O)NNC(=O)[C@H](Cc1ccccc1)NC(=O)[C@@H](NC(=O)[C@H](CC(=O)NCc1ccccc1)NC(=O)[C@@H](Cc1c[nH]c2ccccc12)NC(=O)[C@@H](Cc1ccc(O)cc1)NC(C)=O)[C@@H](C)O)C(=O)N[C@@H](Cc1c[nH]c2ccccc12)C(N)=O [Compound No. 716, Ac-D-Tyr-D-Trp-Asp(NHBzl)-Thr-Phe-AzaGly-Leu-Arg(Me)-Trp-NH2] (Ac-[dY][dW]D(NHBn)TF[azaGly]L[Arg(Me)]W-NH2) | 3.6 |
| CNC(=N)NCCC[C@H](NC(=O)[C@H](CC(C)C)NC(=O)NNC(=O)[C@H](Cc1ccccc1)NC(=O)[C@@H](NC(=O)[C@H](CC(N)=O)NC(=O)[C@@H](CCC(N)=O)NC(=O)[C@@H](Cc1ccc(O)cc1)NC(C)=O)[C@@H](C)O)C(=O)N[C@@H](Cc1c[nH]c2ccccc12)C(N)=O [Compound No. 738, Ac-D-Tyr-D-Gln-Asn-Thr-Phe-AzaGly-Leu-Arg(Me)-Trp-NH2] (Ac-[dY][dQ]NTF[azaGly]L[Arg(Me)]W-NH2) | 1.4 |
| CNC(=N)NCCC[C@H](NC(=O)[C@H](CC(C)C)NC(=O)NNC(=O)[C@H](Cc1ccccc1)NC(=O)[C@@H](NC(=O)[C@H](CC(N)=O)NC(=O)[C@@H]1C[C@H](N)CN1C(=O)[C@@H](Cc1ccc(O)cc1)NC(C)=O)[C@@H](C)O)C(=O)N[C@@H](Cc1c[nH]c2ccccc12)C(N)=O [Compound No. 780, Ac-D-Tyr-Pro(4NH2)-Asn-Thr-Phe-AzaGly-Leu-Arg(Me)-Trp-NH2] (Ac-[dY][Pro(4S-NH2)]NTF[azaGly]L[Arg(Me)]W-NH2) | 2.1 |
| CNC(=N)NCCC[C@H](NC(=O)[C@H](CC(C)C)NC(=O)NNC(=O)[C@H](Cc1cccc(F)c1)NC(=O)[C@@H](NC(=O)[C@H](CC(N)=O)NC(=O)CNC(=O)[C@@H](Cc1ccc(O)cc1)NC(C)=O)[C@@H](C)O)C(=O)N[C@@H](Cc1c[nH]c2ccccc12)C(N)=O [Compound No. 785, Ac-D-Tyr-Gly-Asn-Thr-Phe(3F)-AzaGly-Leu-Arg(Me)-Trp-NH2] (Ac-[dY]GNT[Phe(3-F)][azaGly]L[Arg(Me)]W-NH2) | 3.2 |
